From patent US11992552B2, “Geometric configurations for gastric residence systems” (Lyndra Therapeutics, Inc., priority 2015, dated 2024)

Tests used:
[1] = Shear-lap joint adhesion test (ASTM D3163) of enteric materials; type: physicochemical; details: plasticizer with Eudragit L100-55 (70%/30% enteric material/plasticizer), acetone as solvent, PCL sheets
From the text: The influence of solvent (acetone, isopropyl alcohol, and ethyl acetate) and plasticizer (Eudragit NM, Plastoid B, Triethyl Citrate, and Triacetin) on the adhesion force of enteric materials were quantified using ASTM D3163, a standardized shear-lap joint mechanical test. The top figure A illustrates a side view of the experimental setup. Two 2-mm thick PCL (Mn 55 k) polymer sheets are adhered to an enteric material, Eudragit L100-55 (methyl methacrylate) combined with a plasticizer (in a 70%/30% enteric material/plasticizer ratio), using a solvent and pressure. The polymer sheets are then loaded into a tensile testing machine and pulled apart. The force/stress that causes the linker-polymer bond to break is recorded.

[2] = Behaviour over seven days in simulated gastric fluid; type: physicochemical

adhesion force [1]: greatest adhesion force
Structure (SMILES): CC(=O)OCC(COC(C)=O)OC(C)=O [Triacetin]
release of plasticizer from a polymer formulation [2]: releases from a polymer formulation in a time-dependent manner over seven days
